From patent US20240246941A1, “SUBSTITUTED 4-(3-AMINOPROP-1-YL)AMINOQUINOLINE ANALOGS AS MODULATORS OF MELANOMA-ASSOCIATED ANTIGEN 11 UBIQUITIN LIGASE” (ST. JUDE CHILDREN'S RESEARCH HOSPITAL, INC., priority 2020, published 2024)
In brackets after ≈: the same amount, converted by molar mass. Where two headings read alike, the source gives them in different places.

What was measured:
[1] = target: interaction between GST-MAGEA11 MHD and FAM-PCF11_4 peptide (MAGE-A11:PCF11) (Homo sapiens (Human), UniProt P43364); assay: TR-FRET dose response competition assay for disruption of MAGE-A11:PCF11 binding
Chain of interaction between GST-MAGEA11 MHD and FAM-PCF11_4 peptide (MAGE-A11:PCF11) (P43364 218-429): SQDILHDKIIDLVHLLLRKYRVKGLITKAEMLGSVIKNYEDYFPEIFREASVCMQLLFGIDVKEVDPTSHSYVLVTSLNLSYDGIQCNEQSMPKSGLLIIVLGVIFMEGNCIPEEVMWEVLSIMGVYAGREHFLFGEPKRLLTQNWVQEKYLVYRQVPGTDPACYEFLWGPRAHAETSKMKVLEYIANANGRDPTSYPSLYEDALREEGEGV
Summary of the method: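 Competition TR-FRET at room temperature in 50 mM Tris pH 7.5, 20 mM MgCl2, 0.1 mg/ml BSA, 1 mM DTT: final 5 nM GST-MAGEA11 MHD, 5 nM Tb-anti-GST, 200 nM FAM-PCF11_4, 90 min. Ratio 520/490 nm converted to % inhibition; IC50 from sigmoidal fit.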

[2] = target: MAGE-A11:PCF11 (Homo sapiens (Human), UniProt P43364); assay: TR-FRET single point screening at 15 μM; assay type: binding; design: unit not given here; settings: single point TR-FRET screening at 15 μM against MAGE-A11:PCF11
Chain of MAGE-A11:PCF11 (P43364 218-429): as above
Summary of the method: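 Single-point screen at 15 μM (0.25% DMSO) measuring disruption of GST-MAGEA11 (5 nM) binding to FAM-PCF11_4 peptide (200 nM) detected by Tb-anti-GST (5 nM). Buffer 50 mM Tris pH 7.5, 20 mM MgCl2, 0.1 mg/ml BSA, 1 mM DTT; 90 min at ~25 °C; 520/490 nm ratio converted to % inhibition versus controls.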

[3] = Solubility assay (μSOL Evolution, UV); assay type: physicochemical; settings: 18 h at RT in buffer; for solubility at 18 h: aqueous buffer, kinetic from dmso stock
Protocol: Solubility assays were carried out on a Biomek FX lab automation workstation (Beckman Coulter, Inc., Fullerton, CA) using SOL Evolution software (pION Inc., Woburn, MA). The detailed method is described as follows. 10 μl of 10 mM compound stock (in DMSO) was added to 190 μl 1-propanol to make a reference stock plate. 5 μl from this reference stock plate were mixed with 70 μl 1-propanol and 75 μl citrate phosphate-buffered saline (PBS; isotonic) to make the reference plate, and the UV spectrum (250-500 nm) of the reference plate was read. 6 μl of 10 mM test compound stock was added to 594 μl buffer in a 96-well storage plate and mixed. The storage plate was sealed and incubated at RT for 18 h. The suspension was then filtered through a 96-well filter plate (pION Inc., Woburn, MA). 75 μl of filtrate was mixed with 75 μl 1-propanol to make the sample plate, and the UV spectrum of the sample plate was read. Calculations were carried out with μSOL Evolution software based on the area under the curve (AUC) of the UV spectrum of the sample and reference plates. All compounds were tested in triplicate.

[4] = High throughput Caco-2 permeability; assay type: in vitro ADME; settings: human, 10 μmol/l, 2 h, 37° C.
Protocol: (§1) High throughput Caco-2 permeability was performed in the TranswellR 0.4 μm polycarbonate membrane 96-well system with modified methods. Caco-2 cells were maintained at 37° C. in a humidified incubator with an atmosphere of 5% CO2. The cells were cultured in 75 cm^2 flasks with Dulbecco's Modified Eagle's Medium (DMEM) containing 10% (v/v) FBS, 1% (v/v) non-essential amino acids (NEAA), 100 units/ml of penicillin, and 100 μg/ml of streptomycin. The Caco-2 cells were seeded onto inserts at a density of 2×10^4 cells/insert separately. The medium in the wells was exchanged each other day, and the trans epithelial electrical resistance (TEER) value was measured using an epithelial voltohm meter (Millipore, Billerica, Massachusetts). […] For transport experiments, each cultured monolayer on the 96-well plate was washed twice with a transport buffer (HBSS containing 25 mM HEPES, pH 7.4). The permeability assay was initiated by the addition of each compound solution (10 μmol/l) into inserts (apical side, A) or receivers (basolateral side, B). The Caco-2 cell monolayers were incubated for 2 h at 37° C. Fractions were collected from receivers (if apical to basal permeability) or inserts (if basal to apical permeability), and concentrations were assessed by UPLC/MS (Waters; Milford, MA). All compounds were tested in triplicates. The A→B (or B→A) apparent permeability coefficients (Papp) of each compound were calculated using the equation, Papp=dQ/dt×1/AC0, where dQ/dt equals the flux of a drug across the monolayer, A equals the total insert well surface area, and C0 is the initial concentration of substrate in the donor compartment. The efflux ratio was determined by dividing the Papp in the B-A direction by the Papp in the A-B direction.

[5] = test system: Caco-2 cell monolayers; assay: High throughput Caco-2 permeability; assay type: in vitro ADME
Protocol: as §1

[6] = Table 8, representative compounds, read-out: TR-FRET IC50
[7] = Table 6, 4-aminoquinoline compounds, read-out: TR-FRET, IC50
[8] = Caco-2, pH 7.4, apical to basolateral, read-out: Caco-2 permeability, A/B
[9] = Caco-2, pH 7.4, basolateral to apical, read-out: Caco-2 permeability, B/A
[10] = read-out: IC50 by TR-FRET for disrupting MAGE-A11:PCF11 interaction
[11] = Dose response TR-FRET screening of nine scaffold groups against MAGE-A11:PCF11, read-out: consensus IC50
[12] = Table 5, dose response TR-FRET screening of 59 quinoline compounds against MAGE-A11:PCF11, read-out: TR-FRET IC50

Structure (SMILES) | Papp at 2 h, 10 μmol/l [4, 8] [×10⁻⁶ cm/s] | Papp at 2 h, 10 μmol/l [4, 9] [×10⁻⁶ cm/s] | IC50 [1, 11] [µM] | also measured
CCCN(CCCCNc1ccnc2cc(Cl)ccc12)Cc1cc(Br)ccc1O [SJ000311196] |  |  |  | IC50 [1, 6]: 69.9 µM; TR-FRET signal [2]: 5.724
FC(F)(F)c1cc(-c2ccc3c(NCCCNCc4ccco4)ccnc3c2)cc(C(F)(F)F)c1 [SJ000311270-01] | 0.326 | 0.079 |  | IC50 [1, 7]: 0.58 µM; Solubility [3]: 61.08 µM (≈ 30.1 µg/mL)
CC(C)(C)c1ccc(-c2ccc3c(NCCCNCc4ccco4)ccnc3c2)cc1 [SJ000311286-01] | 0.578 | 0.12 |  | IC50 [1, 10]: 1.16 µM; Solubility [3]: 56.16 µM (≈ 23.2 µg/mL)
FC(F)(F)c1ccc2c(NCCCNCc3ccc4c(c3)OCO4)ccnc2c1 [SJ000361106-02, N^1-(Benzo[d][1,3]dioxol-5-ylmethyl)-N^3-(7-(trifluoromethyl)quinolin-4-yl)propane-1,3-diamine] | 47 | 40 |  | IC50 [1, 7]: > 74 µM; IC50 [1, 6]: 69.9 µM; solubility at 18 h [3]: 129 µM (≈ 51.9 µg/mL)
FC(F)(F)c1ccc2c(NCCCNCc3ccco3)ccnc2c1 [SJ000361113-02, N^1-(Furan-2-ylmethyl)-N^3-(7-(trifluoromethyl)quinolin-4-yl)propane-1,3-diamine] | 50.2 | 40.1 |  | IC50 [1, 7]: > 70 µM; solubility at 18 h [3]: 119 µM (≈ 41.6 µg/mL)
Clc1ccc2c(NCCCNCc3ccc4[nH]ccc4c3)ccnc2c1 [SJ000520909-03, N^1-((1H-Indol-5-yl)methyl)-N^3-(7-chloroquinolin-4-yl)propane-1,3-diamine] | 19.6 | 21.3 |  | IC50 [1, 7]: 0.24 µM; IC50 [1, 6]: 67.1 µM; solubility at 18 h [3]: 59.8 µM (≈ 21.8 µg/mL)
NC1=C(Nc2ccccc2)C(=O)c2ccccc2C1=O [SJ000562543-1] |  |  | 60.8 | 
Cc1ccccc1NC1=C(N)C(=O)c2ccccc2C1=O [SJ000562551-1] |  |  | 72.2 | 
Cc1ccc(NC2=C(N)C(=O)c3ccccc3C2=O)cc1 [SJ000562618-1] |  |  | 60.6 | 
CCCCCCCCOc1ccc(NC2=C(N)C(=O)c3ccccc3C2=O)cc1 [SJ000562629-1] |  |  | 54.8 | 
NC1=C(Nc2ccc(Cl)cc2)C(=O)c2ccccc2C1=O [SJ000562630-1] |  |  | 53.8 | 
Cc1cc(C)cc(NC2=C(N)C(=O)c3ccccc3C2=O)c1 [SJ000562641-1] |  |  | 55 | 
COc1cc(NCc2ccc3nc(N)nc(N)c3c2C)cc(OC)c1OC [SJ000574313-7] |  |  | 9.46 | 
CCCN(CCCNc1ccnc2cc(C(F)(F)F)ccc12)Cc1ccc2[nH]ccc2c1 [SJ000575171-1] |  |  |  | IC50 [1, 12]: 33.2 µM
Clc1ccc2c(NCCCNCc3ccc[nH]3)ccnc2c1 [SJ000575192-1] |  |  |  | IC50 [1, 12]: 22.8 µM
O=C1c2ccccc2NC(c2ccc(F)cc2F)N1CCCN1CCOCC1 (stereo not shown) [SJ000795275-1] |  |  | 67.8 | 
O=C1c2ccccc2NC(c2ccc(F)c(F)c2)N1CCCN1CCOCC1 (stereo not shown) [SJ000803757-1] |  |  | 58.4 | 
CCCOc1ccc(C2Nc3ccccc3C(=O)N2CCCN2CCOCC2)cc1 (stereo not shown) [SJ000803758-1] |  |  | 72.1 | 

Structure (SMILES) | Papp at 2 h, 10 μmol/l [4, 8] [×10⁻⁶ cm/s] | Papp at 2 h, 10 μmol/l [4, 9] [×10⁻⁶ cm/s] | IC50 [1, 11] [µM] | also measured
CCOc1ccc(C2Nc3ccccc3C(=O)N2CCCN2CCOCC2)cc1 (stereo not shown) [SJ000803759-1] |  |  | 67.7 | 
COc1ccc(C2Nc3ccccc3C(=O)N2CCCN2CCOCC2)cc1OC(F)F (stereo not shown) [SJ000803760-1] |  |  | 72.1 | 
Cc1cc(C)c(C2Nc3ccccc3C(=O)N2CCCN2CCOCC2)cc1C (stereo not shown) [SJ000803761-1] |  |  | 62.3 | 
CSc1ccc(C2Nc3ccccc3C(=O)N2CCCN2CCOCC2)cc1 (stereo not shown) [SJ000803762-1] |  |  | 71.3 | 
COc1ccc2cc(C3Nc4ccccc4C(=O)N3CCCN3CCOCC3)ccc2c1 (stereo not shown) [SJ000803763-1] |  |  | 67.4 | 
O=C1c2ccccc2NC(c2ccc(F)c(Br)c2)N1CCCN1CCOCC1 (stereo not shown) [SJ000803764-1] |  |  | 68 | 
CN(C)c1ccc(C2Nc3ccccc3C(=O)N2CCCN2CCOCC2)cc1 (stereo not shown) [SJ000803767-1] |  |  | 71.1 | 
Cc1ccc(C2Nc3ccccc3C(=O)N2CCCN2CCOCC2)cc1 (stereo not shown) [SJ000803768-1] |  |  | 65.9 | 
CCCn1c(=O)c2nc(-c3ccccc3)[nH]c2n(CCC)c1=O [SJ000832251-1] |  |  | 73 | 
C=CCn1c(=O)c2c(nc(-c3ccccc3)n2C)n(C)c1=O [SJ000832270-1] |  |  | 85.8 | 
Fc1ccc2c(NCCCNCc3ccc(OC(F)(F)F)cc3)ccnc2c1 [SJ000834150] |  |  |  | IC50 [1, 6]: > 67.3 µM
CCc1ccc(OCc2ccccc2C(=O)Nc2ccc3nc(C)cc(N)c3c2)cc1 [SJ000855285] |  |  |  | IC50 [1, 6]: 9.29 µM
Brc1ccc2c(NCCCNCc3ccc4[nH]ccc4c3)ccnc2c1 [SJ001008065-01, N^1-((1H-Indol-5-yl)methyl)-N^3-(7-bromoquinolin-4-yl)propane-1,3-diamine] | 18.3 | 19.3 |  | IC50 [1, 7]: 0.62 µM; solubility at 18 h [3]: 57.1 µM (≈ 23.4 µg/mL)
c1ccc2c(NCCCNCc3ccc4[nH]ccc4c3)ccnc2c1 [SJ001008066-01, N^1-((1H-Indol-5-yl)methyl)-N^3-(quinolin-4-yl)propane-1,3-diamine] | 8.17 | 8.09 |  | IC50 [1, 10]: 0.13 µM; Solubility [3]: 37.77 µM (≈ 12.5 µg/mL); cell permeability [5]: cell permeable
Cn1ccc2cc(CNCCCNc3ccnc4cc(C(F)(F)F)ccc34)ccc21 [SJ001008067-01, N^1-((1-Methyl-1H-indol-5-yl)methyl)-N^3-(7-(trifluoromethyl)quinolin-4-yl)propane-1,3-diamine] | 21.4 | 12.3 |  | IC50 [1, 7]: 1.16 µM; solubility at 18 h [3]: 19.4 µM (≈ 8 µg/mL)
CC(C)(C)c1ccc(-c2ccc3c(NCCCNCc4ccc5[nH]ccc5c4)ccnc3c2)cc1 [SJ001008068-01, N^1-((1H-Indol-5-yl)methyl)-N^3-(7-(4-(tert-butyl)phenyl)quinolin-4-yl)propane-1,3-diamine] | 0.368 | 1.54 |  | IC50 [1, 7]: 0.13 µM; solubility at 18 h [3]: 0.67 µM (≈ 0.31 µg/mL)
FC(F)(F)c1cc(-c2ccc3c(NCCCNCc4ccc5[nH]ccc5c4)ccnc3c2)cc(C(F)(F)F)c1 [SJ001008069-01, N^1_((1H-Indol-5-yl)methyl)-N^3-(7-(3,5-bis(trifluoromethyl)phenyl)quinolin-4-yl)propane-1,3-diamine] | 0.498 | 0.229 |  | IC50 [1, 7]: 0.2 µM; solubility at 18 h [3]: 0.12 µM (≈ 0.0651 µg/mL)
C=CC(=O)N(CCCNc1ccnc2ccccc12)Cc1ccc2[nH]ccc2c1 [SJ001009807-01, N-((1H-Indol-5-yl)methyl)-N-(3-(quinolin-4-ylamino)propyl)acrylamide] | 2.73 | 18.9 |  | IC50 [1, 7]: 3.5 µM; solubility at 18 h [3]: 34.8 µM (≈ 13.4 µg/mL)
